Tests used:
[1] = biological target: EGFR Del19/T790M/C797S (H1975-clone #28) (Homo sapiens, UniProt P00533, T790M/C797S, form not given); assay: EGFR degradation, HTRF total-EGFR assay, H1975-clone #28 (DTC); format: cell-based; conditions: H1975-clone #28 Del19/T790M/C797S, 16 h treatment
From the text: (§1) H1975-clone #28 (Del19/T790M/C797S, or abbr: DTC), H1975-clone #23 (Del19/C797S, or abbr: DC), H1975-clone #25 (L858R/T790M/C797S, or abbr: LTC) and H1975-clone #8 (L858R/C797S, or abbr: LC). EGFR-Del19/T790M/C797S, EGFR-Del19/C797S, EGFR-L858R/T790M/C797S and EGFR-L858R/C797S were stably expressed in H1975 cell lines by lentivirus-mediated over-expression, respectively. The EGFR over-expressed cells then underwent knockout, in which the EGFR targeting sgRNA was designed to only target the endogenous EGFR copies and preserve the exogenous EGFR copies. Followed by the knockout, the edited H1975 cells were seeded in 96 well plates at the concentration of 1 cell/well, cultured for about 2 weeks to allow single clones formation. The formed clones were screened by DNA sequencing and whole exon sequencing analysis for the desired edition. H1975-clone #28, H1975-clone #23, H1975-clone #25 and H1975-clone #8 were finally confirmed as homozygous Del19/T790M/C797S EGFR, Del19/C797S EGFR, L858R/T790M/C797S EGFR and L858R/C797S EGFR clones, respectively.
(§2) H1975-#25, H1975-#28, H1975-#23 and H1975-#8 cells are treated with compounds diluted in 0.2% DMSO cell culture medium on day 2, incubate for 16 h, 37° C., 5% CO2. The final concentration of compounds in all assay is start with 10 μM, 5-fold dilution, total 8 doses were included.
(§3) Total-EGFR cellular kit(64NG1PEH) were used for evaluating EGFR degradation.
(§4) After 16 h treatment, add HTRF lysis buffer to each well; seal the plate and incubate 1 hour at room temperature on a plate shaker; Once the cells are lysed, 16 μL of cell lysate are transferred to a PE 384-well HTRF detection plate; 4 μL of pre-mixed HTRF antibodies are added to each well; cover the plate with a plate sealer, spin 1000 rpm for 1 min, incubate overnight at room temperature; read on BMG PheraStar with HTRF protocol (337 nm-665 nm-620 nm).
(§5) The inhibition (degradation) percentage of the compound was calculated by the following equation:
(§6) Inhibition percentage of Compound=100−100×(Signal−low control)/(High control−low control), wherein signal=each test compound group
(§7) High control=Cell group with added DMSO and without compound, indicating microplate readings without EGFR degradation.
(§8) Imax (Dmax) is the maximum percentage of inhibition (degradation).
(§9) The IC50 (DC50) value of a compound can be obtained by fitting the following equation
(§10) Wherein, X and Y are known values, and IC50, Hillslope, Top and Bottom are the parameters obtained by fitting with software. Y is the inhibition percentage (calculated from the equation), X is the concentration of the compound; IC50 is the concentration of the compound when the 50% inhibition is reached. The smaller the IC50 value is, the stronger the inhibitory ability of the compound is. Vice versa, the higher the IC50 value is, the weaker the ability the inhibitory ability of the compound is; Hillslope represents the slope of the fitted curve, generally around 1*; Bottom represents the minimum value of the curve obtained by data fitting, which is generally 0%±20%; Top represents the maximum value of the curve obtained by data fitting, which is generally 100%±20%. The experimental data were fitted by calculating and analyzing with Dotmatics data analysis software.

[2] = biological target: T1, EGFR L858R/T790M/C797S (H1975-clone #25) (Homo sapiens, UniProt P00533, C797S/L858R/T790M); assay: EGFR degradation, HTRF total-EGFR assay, H1975-clone #25 (LTC); format: cell-based; conditions: H1975-clone #25 L858R/T790M/C797S, 16 h treatment
T1 construct: expressed in transfected cells; host or cells: H1975 (clone #25), lentiviral transduction, endogenous EGFR knocked out
T1 sequence (P00533 25-1210 T790M/C797S/L858R): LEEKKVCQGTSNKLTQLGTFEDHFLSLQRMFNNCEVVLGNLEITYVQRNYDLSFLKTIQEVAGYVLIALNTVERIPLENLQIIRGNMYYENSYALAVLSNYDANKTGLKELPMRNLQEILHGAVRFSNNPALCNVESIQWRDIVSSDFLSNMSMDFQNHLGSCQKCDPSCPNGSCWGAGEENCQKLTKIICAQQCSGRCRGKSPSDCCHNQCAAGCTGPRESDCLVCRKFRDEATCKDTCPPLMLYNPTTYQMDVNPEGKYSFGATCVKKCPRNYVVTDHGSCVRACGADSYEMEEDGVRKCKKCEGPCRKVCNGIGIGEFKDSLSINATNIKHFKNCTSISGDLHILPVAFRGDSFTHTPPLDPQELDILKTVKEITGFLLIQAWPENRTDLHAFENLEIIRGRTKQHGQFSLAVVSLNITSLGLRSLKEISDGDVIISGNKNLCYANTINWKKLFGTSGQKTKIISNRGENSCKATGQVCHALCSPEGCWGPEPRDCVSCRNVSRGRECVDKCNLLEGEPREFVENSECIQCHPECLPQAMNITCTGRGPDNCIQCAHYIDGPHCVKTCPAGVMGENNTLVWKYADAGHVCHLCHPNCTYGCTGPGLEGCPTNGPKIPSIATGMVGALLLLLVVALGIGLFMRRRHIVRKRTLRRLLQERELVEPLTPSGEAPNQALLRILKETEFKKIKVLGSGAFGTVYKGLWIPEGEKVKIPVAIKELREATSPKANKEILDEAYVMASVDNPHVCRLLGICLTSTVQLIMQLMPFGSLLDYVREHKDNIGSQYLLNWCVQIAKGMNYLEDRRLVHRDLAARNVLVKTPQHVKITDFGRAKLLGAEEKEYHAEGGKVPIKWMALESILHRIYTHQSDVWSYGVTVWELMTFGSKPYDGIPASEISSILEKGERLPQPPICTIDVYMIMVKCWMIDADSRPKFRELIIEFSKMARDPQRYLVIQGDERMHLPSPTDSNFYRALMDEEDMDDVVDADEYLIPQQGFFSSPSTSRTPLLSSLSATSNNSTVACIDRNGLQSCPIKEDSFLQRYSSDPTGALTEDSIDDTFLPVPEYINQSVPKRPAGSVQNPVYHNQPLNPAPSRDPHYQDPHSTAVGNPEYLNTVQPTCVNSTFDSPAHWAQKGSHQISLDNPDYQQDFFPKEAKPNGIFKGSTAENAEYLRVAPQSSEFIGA
From the text: as §1, §2, §3, §4, §5, §6, §7, §8, §9, §10

Chain of EGFR Del19/T790M/C797S (H1975-clone #28) (P00533 with tags, fused parts or gaps DEL746-750/T790M/C797S, form open): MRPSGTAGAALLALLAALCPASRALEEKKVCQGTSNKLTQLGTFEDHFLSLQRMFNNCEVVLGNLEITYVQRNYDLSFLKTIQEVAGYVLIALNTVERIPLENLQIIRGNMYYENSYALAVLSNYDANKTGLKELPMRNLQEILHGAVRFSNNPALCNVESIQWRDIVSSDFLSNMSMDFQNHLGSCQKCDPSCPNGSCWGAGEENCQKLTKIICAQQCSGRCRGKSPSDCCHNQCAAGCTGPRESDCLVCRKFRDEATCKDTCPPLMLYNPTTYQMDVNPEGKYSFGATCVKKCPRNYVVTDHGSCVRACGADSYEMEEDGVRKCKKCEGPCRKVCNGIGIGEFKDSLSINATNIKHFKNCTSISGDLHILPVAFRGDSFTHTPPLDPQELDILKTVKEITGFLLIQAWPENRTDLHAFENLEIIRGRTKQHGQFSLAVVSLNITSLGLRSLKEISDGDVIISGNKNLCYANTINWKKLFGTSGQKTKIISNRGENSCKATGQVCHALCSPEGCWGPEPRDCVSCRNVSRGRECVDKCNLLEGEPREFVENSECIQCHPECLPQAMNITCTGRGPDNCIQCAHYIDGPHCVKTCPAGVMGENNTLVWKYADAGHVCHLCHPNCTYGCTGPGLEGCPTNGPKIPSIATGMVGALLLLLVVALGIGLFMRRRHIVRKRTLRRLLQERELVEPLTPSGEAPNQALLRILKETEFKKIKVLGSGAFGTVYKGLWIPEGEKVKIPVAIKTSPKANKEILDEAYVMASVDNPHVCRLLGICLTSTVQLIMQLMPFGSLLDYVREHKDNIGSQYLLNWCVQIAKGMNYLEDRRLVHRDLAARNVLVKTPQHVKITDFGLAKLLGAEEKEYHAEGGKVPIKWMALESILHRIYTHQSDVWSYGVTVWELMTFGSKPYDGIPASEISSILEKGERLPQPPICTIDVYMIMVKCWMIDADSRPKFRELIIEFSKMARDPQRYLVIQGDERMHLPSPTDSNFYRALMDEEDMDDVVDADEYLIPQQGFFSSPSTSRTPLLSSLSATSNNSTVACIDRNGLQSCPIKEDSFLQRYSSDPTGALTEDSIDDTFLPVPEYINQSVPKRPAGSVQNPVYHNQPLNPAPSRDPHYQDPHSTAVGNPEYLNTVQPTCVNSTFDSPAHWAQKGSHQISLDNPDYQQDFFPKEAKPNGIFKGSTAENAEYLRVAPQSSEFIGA

Degradation H1975 # 28 DTC [1] | Degradation H1975 # 25-LTC [2] | Structure (SMILES)
84.6 | 86.6 | Cc1cc2cc(n1)-c1cnn(C)c1OC[C@H]1C[C@@H](CN3/C(=N/C2=O)Nc2ccc(CN4CCN(C(=O)C5CN(c6cc(F)c([C@H]7CCC(=O)NC7=O)c(F)c6)CC5(C)C)CC4)cc23)C1 (stereo partly drawn) [Example 4, (R)-3-(4-((S)-4-(4-(((7^1s,7^3R,E)-1^1,2^6-dimethyl-3-oxo-5^2,5^3-dihydro-1^1H,5^1H-9-oxa-4-aza-5(2,1)-benzo[d]imidazola-2(2,4)-pyridina-1(4,5)-pyrazola-7(1,3)-cyclobutanacyclononaphane-5^6-yl)methyl)piperazine-1-carbonyl)-3,3-dimethylpyrrolidin-1-yl)-2,6-difluorophenyl)piperidine-2,6-dione]
92.2 | 92.9 | Cc1cc2cc(n1)-c1cnn(C)c1OC[C@H]1C[C@@H](CN3/C(=N/C2=O)Nc2ccc(N4CCC(N5CCN(c6cnc(C7CCC(=O)NC7=O)cc6C)CC5)CC4)cc23)C1 (stereo partly shown) [Example 5, 3-(5-(4-(1-((7^1s,7^3s,E)-1^1,2^6-dimethyl-3-oxo-5^2,5^3-dihydro-1^1H,5^1H-9-oxa-4-aza-5(2,1)-benzo[d]imidazola-2(2,4)-pyridina-1(4,5)-pyrazola-7(1,3)-cyclobutanacyclononaphane-5^6-yl)piperidin-4-yl)piperazin-1-yl)-4-methylpyridin-2-yl)piperidine-2,6-dione]
80.6 | 78.6 | Cc1cc2cc(n1)-c1cnn(C)c1OC[C@H]1C[C@@H](CN3/C(=N/C2=O)Nc2ccc(N4CCN(C5CCN(c6ccc(C7CCC(=O)NC7=O)nc6)CC5)C[C@H]4C)cc23)C1 (stereo partly drawn) [Example 7, 3-(5-(4-((R)-4-((7^1s,7^3S,E)-1^1,2^6-dimethyl-3-oxo-5^2,5^3-dihydro-1^1H,5^1H-9-oxa-4-aza-5(2,1)-benzo[d]imidazola-2(2,4)-pyridina-1(4,5)-pyrazola-7(1,3)-cyclobutanacyclononaphane-5^6-yl)-3-methylpiperazin-1-yl)piperidin-1-yl)pyridin-2-yl)piperidine-2,6-dione]
90.9 | 88.5 | Cc1cc2cc(n1)-c1cnn(C)c1OC[C@H]1C[C@@H](CN3/C(=N/C2=O)Nc2ccc(N4CCN(CCc5cc(F)c([C@H]6CCC(=O)NC6=O)c(F)c5)CC4=O)cc23)C1 [Example 9, (R)-3-(4-(2-(4-((7^1s,7^3s,E)-1^1,2^6-dimethyl-3-oxo-5^2,5^3-dihydro-1^1H,5^1H-9-oxa-4-aza-5(2,1)-benzo[d]imidazola-2(2,4)-pyridina-1(4,5)-pyrazola-7(1,3)-cyclobutanacyclononaphane-5^6-yl)-3-oxopiperazin-1-yl)ethyl)-2,6-difluorophenyl)piperidine-2,6-dione]
90.6 | 89.8 | Cc1cc2cc(n1)-c1cnn(C)c1OC[C@H]1C[C@@H](CN3/C(=N/C2=O)Nc2ccc(N4CCN(C5CCN(c6cc(F)c([C@H]7CCC(=O)NC7=O)c(F)c6)CC5)CC4=O)cc23)C1 [Example 10, (R)-3-(4-(4-(4-((7^1s,7^3s,E)-1^1,2^6-dimethyl-3-oxo-5^2,5^3-dihydro-1^1H,5^1H-9-oxa-4-aza-5(2,1)-benzo[d]imidazola-2(2,4)-pyridina-1(4,5)-pyrazola-7(1,3)-cyclobutanacyclononaphane-5^6-yl)-3-oxopiperazin-1-yl)piperidin-1-yl)-2,6-difluorophenyl)piperidine-2,6-dione]
91.5 | 85.4 | Cc1cc2cc(n1)-c1cnn(C)c1OC[C@H]1C[C@@H](CN3/C(=N/C2=O)Nc2ccc(N4CCN(CC5CN(c6cc(F)c([C@H]7CCC(=O)NC7=O)c(F)c6)C5)CC4=O)cc23)C1 [Example 11, (R)-3-(4-(3-((4-((7^1s,7^3s,E)-1^1,2^6-dimethyl-3-oxo-5^2,5^3-dihydro-1^1H,5^1H-9-oxa-4-aza-5(2,1)-benzo[d]imidazola-2(2,4)-pyridina-1(4,5)-pyrazola-7(1,3)-cyclobutanacyclononaphane-5^6-yl)-3-oxopiperazin-1-yl)methyl)azetidin-1-yl)-2,6-difluorophenyl)piperidine-2,6-dione]
85.3 | 79.0 | Cc1cc2cc(n1)-c1cnn(C)c1OC[C@H]1C[C@@H](CN3/C(=N/C2=O)Nc2ccc(N4CCN(C5CCN(c6ccc(C7CCC(=O)NC7=O)nc6)CC5)CC4=O)cc23)C1 (stereo partly shown) [Example 12, 3-(5-(4-(4-((7^1s,7^3s,E)-1^1,2^6-dimethyl-3-oxo-5^2,5^3-dihydro-1^1H,5^1H-9-oxa-4-aza-5(2,1)-benzo[d]imidazola-2(2,4)-pyridina-1(4,5)-pyrazola-7(1,3)-cyclobutanacyclononaphane-5^6-yl)-3-oxopiperazin-1-yl)piperidin-1-yl)pyridin-2-yl)piperidine-2,6-dione]
76.0 | 87.3 | Cc1cc2cc(n1)-c1cnn(C)c1OC[C@H]1C[C@@H](CN3/C(=N/C2=O)Nc2ccc(N4CCN(C5CCN(c6ccc(C7CCC(=O)NC7=O)nc6)CC5)CC4)cc23)C1 (stereo partly shown) [Example 15, 3-(5-(4-(4-((7^1s,7^3s,E)-1^1,2^6-dimethyl-3-oxo-5^2,5^3-dihydro-1^1H,5^1H-9-oxa-4-aza-5(2,1)-benzo[d]imidazola-2(2,4)-pyridina-1(4,5)-pyrazola-7(1,3)-cyclobutanacyclononaphane-5^6-yl)piperazin-1-yl)piperidin-1-yl)pyridin-2-yl)piperidine-2,6-dione]
86.2 | 88.3 | Cc1cc2cc(n1)-c1cnn(C)c1OC[C@H]1C[C@@H](CN3/C(=N/C2=O)Nc2ccc(N4CCC(N5CCN(c6cc(F)c([C@H]7CCC(=O)NC7=O)c(F)c6)CC5)CC4)cc23)C1 [Example 17, (R)-3-(4-(4-(1-((7^1s,7^3s,E)-1^1,2^6-dimethyl-3-oxo-5^2,5^3-dihydro-1^1H,5^1H-9-oxa-4-aza-5(2,1)-benzo[d]imidazola-2(2,4)-pyridina-1(4,5)-pyrazola-7(1,3)-cyclobutanacyclononaphane-5^6-yl)piperidin-4-yl)piperazin-1-yl)-2,6-difluorophenyl)piperidine-2,6-dione]
88.4 | 88.6 | Cc1cc2cc(n1)-c1cnn(C)c1OC[C@H]1C[C@@H](CN3/C(=N/C2=O)Nc2ccc(N4CCN(C5CCN(c6cc(F)c([C@H]7CCC(=O)NC7=O)c(F)c6)CC5)C[C@H]4C)cc23)C1 [Example 18, (R)-3-(4-(4-((R)-4-((7^1s,7^3S,E)-1^1,2^6-dimethyl-3-oxo-5^2,5^3-dihydro-1^1H,5^1H-9-oxa-4-aza-5(2,1)-benzo[d]imidazola-2(2,4)-pyridina-1(4,5)-pyrazola-7(1,3)-cyclobutanacyclononaphane-5^6-yl)-3-methylpiperazin-1-yl)piperidin-1-yl)-2,6-difluorophenyl)piperidine-2,6-dione]
92.8 | 92.2 | Cc1cc2cc(n1)-c1cnn(C)c1OC[C@H]1C[C@@H](CN3/C(=N/C2=O)Nc2ccc(N4CCN([C@H]5CCN(c6ccc(C7CCC(=O)NC7=O)nc6C)C[C@H]5F)CC4)cc23)C1 (stereo partly drawn) [Example 19, 3-(5-((3R,4S)-4-(4-((7^1s,7^3R,E)-1^1,2^6-dimethyl-3-oxo-5^2,5^3-dihydro-1^1H,5^1H-9-oxa-4-aza-5(2,1)-benzo[d]imidazola-2(2,4)-pyridina-1(4,5)-pyrazola-7(1,3)-cyclobutanacyclononaphane-5^6-yl)piperazin-1-yl)-3-fluoropiperidin-1-yl)-6-methylpyridin-2-yl)piperidine-2,6-dione]
